Test results taken from patent US7008636B2, “2,3,5-substituted biphenyls useful in the treatment of insulin resistance and hyperglycemia” (Wyeth, priority 1998, dated 2006).

Assays:
[1] = target: T1, recombinant, human protein tyrosine phosphatase (PTP) 1B (hPTP1B) (Homo sapiens, UniProt P18031); experiment: Inhibition of tri-phosphorylated insulin receptor dodecaphosphopeptide dephosphorylation by hPTP1B; format: biochemical; settings: 50 μM IR triphosphopeptide substrate, 5 min preincubation and 5 min reaction at 37° C., malachite green-ammonium molybdate phosphate detection
T1 construct: made in house
T1 sequence (P18031 1-435): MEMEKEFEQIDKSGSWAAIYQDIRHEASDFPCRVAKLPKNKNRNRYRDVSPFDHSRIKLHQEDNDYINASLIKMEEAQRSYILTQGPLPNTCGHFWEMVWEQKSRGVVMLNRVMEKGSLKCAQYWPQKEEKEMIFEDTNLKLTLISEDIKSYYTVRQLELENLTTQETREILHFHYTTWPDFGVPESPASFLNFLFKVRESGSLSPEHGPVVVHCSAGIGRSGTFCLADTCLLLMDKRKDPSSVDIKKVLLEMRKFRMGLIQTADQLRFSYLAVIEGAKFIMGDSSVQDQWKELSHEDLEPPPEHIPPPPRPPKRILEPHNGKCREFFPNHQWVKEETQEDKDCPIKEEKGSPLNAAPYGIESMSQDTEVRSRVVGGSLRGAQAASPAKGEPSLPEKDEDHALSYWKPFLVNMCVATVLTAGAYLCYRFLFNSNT

melting point	IC50 [1] [nM]	Structure (SMILES)
149.9 to 150.6 °C	728	O=C(O)COc1c(-c2cccc(C(F)(F)F)c2)cc(C(=O)NCCCCCCOCc2ccc(F)cc2F)cc1-c1cccc(C(F)(F)F)c1 [Example 19, {5′-[6-(2,4-Difluoro-benzyloxy)-hexylcarbamoyl]-3,3″-bis-trifluoromethyl-[1,1′;3′1″]terphenyl-2′yloxy}-acetic acid]
133.2 to 133.9 °C	379	O=C(O)COc1c(-c2cccc(C(F)(F)F)c2)cc(C(=O)NCCCCCCOCc2ccc(-c3ccccc3)cc2)cc1-c1cccc(C(F)(F)F)c1 [Example 20, {5′-[6-(Biphenyl-4-ylmethoxy)-hexylcarbamoyl]-3,3″-bis-trifluoromethyl-[1,1′;3′,1″]terphenyl-2′-yloxy}-acetic acid]
148.9 to 149.7 °C	880	COc1cccc(-c2cccc(-c3cc(OC)cc(C(=O)N(C)CCCCCCCCc4ccccc4)c3)c2OCC(=O)O)c1 [Example 21, {3,3″-Dimethoxy-5″-[methyl-(8-phenyl-octyl)-carbamoyl]-[1,1′;3′,1″]terphenyl-2′-yloxy}-acetic acid]
78.5 to 79.9 °C	250	O=C(O)COCCOc1c(-c2cc(Cl)cc(Cl)c2)cc(C(=O)NCCCCCCc2ccccc2)cc1-c1cc(Cl)cc(Cl)c1 [Example 22]
> 95 °C	365	COc1ccc(-c2cc(C(=O)NCCCCCCCCc3ccccc3)cc(-c3ccc(OC)cc3)c2OCC(=O)[O-])cc1.[Na+] [Example 23, [4,4″-Dimethoxy-5′-(8-phenyl-octylcarbamoyl)-[1,1′;3′,1″]terphenyl-2′yloxy]acetic acid sodium salt]
90 to 91.2 °C	207	Cc1cc(COCCCCCCNC(=O)c2cc(-c3ccc(F)c(Cl)c3)c(OCC(=O)O)c(-c3ccc(F)c(Cl)c3)c2)c(C)o1 [Example 26, {3,3″-Dichloro-5′-(6-(2,5-dimethyl-furan-3-ylmethoxy)-hexylcarbamoyl]-4-4″-difluoro-[1,1′;3′,1″]terphenyl-2′-yloxy}-acetic acid]
107.9 to 108.5 °C	220	Cc1cc(COCCCCCCNC(=O)c2cc(-c3cccc(C(F)(F)F)c3)c(OCC(=O)O)c(-c3cccc(C(F)(F)F)c3)c2)c(C)o1 [Example 30, {5′-[6-(2,5-Dimethyl-furan-3-ylmethoxy)-hexylcarbamoyl]-3,3″-bis-trifluoromethyl-[1,1′;3′,1″]terphenyl-2′-yloxy}-acetic acid]
132.5 to 133.7 °C	17	CCCCCCCCCCCCCCCCNc1c(Nc2cc(-c3ccccc3)c(OCC(=O)O)c(-c3ccccc3)c2)c(=O)c1=O [Example 32, [5′-(2-Hexadecylamino-3,4-dioxo-cyclobut-1-enylamino)-[1,1′;3′,1″]terphenyl-2′-yloxy]-acetic acid]
90.5 to 92 °C	24	CCCCCCCCCCCCCCCCCCOc1cc(-c2ccccc2)c(OCC(=O)O)c(-c2ccccc2)c1 [Example 36, (5′-Octadecyloxy-[1,1′;3′,1″]terphenyl-2′-yloxy)-acetic acid]
> 136 °C (dec.)	118	O=C(O)COc1c(-c2ccccc2)cc(-c2c3ccccc3cc3sc4ccccc4c23)cc1-c1ccccc1 [Example 37, (5′-Benzo[b]naphtho[2,3-d]thiophen-11-yl-[1,1′;3′,1″]terphenyl-2′-yloxy)-acetic acid]
113 to 115.5 °C	121	CCCCCCCCOc1cc(-c2cccc(Cl)c2)c(OCC(=O)O)c(-c2cccc(Cl)c2)c1 [Example 46, (3,3″-Dichloro-5′-octyloxy-[1,1′;3′,1″]terphenyl-2′-yloxy)acetic acid]
> 100 °C (dec.)	300	CCCCCCCCOc1cc(-c2cccc(NC(C)=O)c2)c(OCC(=O)O)c(-c2cccc(NC(C)=O)c2)c1 [Example 47, (3,3″-Bis-acetylamino-5′-octyloxy-[1,1′;3′,1″]terphenyl-2′-yloxy)acetic acid]
75 to 77 °C	145	CCCCCCCCOc1cc(-c2cccc(C(F)(F)F)c2)c(OCC(=O)O)c(-c2cccc(C(F)(F)F)c2)c1 [Example 48, (5′-Octyloxy-3,3″-bis-trifluoromethyl-[1,1′;3′,1″]terphenyl-2′-yloxy)acetic acid]
129 to 132 °C	400	CCCCCCCCOc1cc(-c2cccc([N+](=O)[O-])c2)c(OCC(=O)O)c(-c2cccc([N+](=O)[O-])c2)c1 [Example 49, (3,3″-Dinitro-5′-octyloxy-[1,1′;3′,1″]terphenyl-2′-yloxy)acetic acid]
178 to 181 °C	600	O=C(O)COc1c(-c2cccc(Cl)c2)cc(C(=O)NCCCCCCc2ccccc2)cc1-c1cccc(Cl)c1 [Example 80, [3,3″-Dichloro-5′-(6-phenyl-hexylcarbamoyl)-[1,1′;3′,1″]terphenyl-2′-yloxy]acetic acid]
> 39 °C (dec.)	330	COc1ccc(-c2cc(C(=O)N(C)CCCCCCCCc3ccccc3)cc(-c3cccc(C(F)(F)F)c3)c2OCC(=O)O)cc1 [Example 81, {4″-Methoxy-5′-[methyl-(8-phenyl-octyl)-carbamoyl]-3-trifluoromethyl-[1,1′;3′1″]-terphenyl-2′-yloxy}acetic acid]
> 44 °C (dec.)	179	CN(CCCCCCCCc1ccccc1)C(=O)c1cc(-c2cccc(Cl)c2)c(OCC(=O)O)c(-c2cccc(Cl)c2)c1 [Example 82, {3,3″-Dichloro-5′-[methyl-(8-phenyl-octyl)-carbamoyl]-[1,1′;3′1″]terphenyl-2′-yloxy}acetic acid]
> 58 °C (dec.)	536	O=C(O)COc1c(-c2cccc(F)c2)cc(C(=O)NCCCCCCCCc2ccccc2)cc1-c1cccc(F)c1 [Example 83, [3,3″-Difluoro-5′-(8-phenyl-octylcarbamoyl)-[1,1′;3′,1″]terphenyl-2′-yloxy]acetic acid]
> 43 °C (dec.)	1030	CN(CCCCCCCCc1ccccc1)C(=O)c1cc(-c2cccc(F)c2)c(OCC(=O)O)c(-c2cccc(F)c2)c1 [Example 84]
> 68 °C (dec.)	332	O=C(O)COc1c(-c2cccc(Cl)c2)cc(C(=O)NCCCCCCCCSc2nc3ccccc3o2)cc1-c1cccc(Cl)c1 [Example 87, {5′-[8-(Benzoxazol-2-ylsulfanyl)-octylcarbamoyl]-3,3″-dichloro-[1,1′;3′1″]-terphenyl-2′-yloxy}acetic acid]
> 84 °C (dec.)	137	O=C(O)COc1c(-c2cccc(Cl)c2)cc(C(=O)NCCCCCCCCn2ccc3ccccc32)cc1-c1cccc(Cl)c1 [Example 88, [3,3″-Dichloro-5′-(8-indol-1-yl-octylcarbamoyl)-[1,1′;3′1″]terphenyl-2′-yloxy]acetic acid]
> 61 °C (dec.)	173	N#Cc1cccc(OCCCCCCCCNC(=O)c2cc(-c3cccc(Cl)c3)c(OCC(=O)O)c(-c3cccc(Cl)c3)c2)c1 [Example 89, {3,3″-Dichloro-5′-[8-(3-cyano-phenoxy)-octylcarbamoyl]-[1,1′;3′1″]terphenyl-2′-yloxy}acetic acid]
